Data taken from patent US11261435B2, “Chemical-inducible genome engineering technology” (AGENCY FOR SCIENCE, TECHNOLOGY AND RESEARCH, priority 2015, dated 2022).

Assays:
[1] = system: EMX1 locus; experiment: Surveyor cleavage assay at the EMX1 locus in HEK293 cells; format: cell-based, human; conditions: for switching ratio: harvested 96 hours after transfection
Method: FIG. 29|Effect of enzyme dosage on the level of background activity, shown as gel images. Different amounts of an iCas-bearing plasmid were transfected together with an EMX1-targeting sgRNA into HEK293 cells. These cells were harvested 96 hours after transfection for the Surveyor cleavage assay. DNA modification was clearly observed when 1 μg of plasmid was utilised, even in the absence of the inducer. […] The switching ratio was improved from 2.83 to 4.16 and 7.96 respectively. […] Arrows indicate the height of the expected cleavage bands.

[2] = system: FANCF locus; experiment: Surveyor assay, genome modification at the FANCF locus in HEK293 cells; format: cell-based, human; conditions: for cleavage bands with 4HT: 100 nM or 1000 nM 4HT for 24 hours
Method: FIG. 16|Genome modification at the FANCF locus in HEK293 cells, the data represented as images showing the results and the concentration of gene induction. 24 hours after transfection with Cas9 variant 27, 29, or 30, the cells were either harvested immediately (0 hour time point) or were exposed to 0 nM, 100 nM or 1000 nM 4HT for another 24 hours before genomic DNA was isolated and analysed by the Surveyor assay. Arrows indicate the expected cleavage bands. […] Furthermore, the leakiness in editing activity became more pronounced over time, as indicated by the increase in INDEL frequency from 2.5% to 7.7% for variant 27 and from 2.9% to 3.5% for variant 29.
At 24 hours after transfection with a FANCF-targeting plasmid, cells were treated with or without tamoxifen for another 24 hours before genomic DNA was isolated and analysed by the Surveyor assay (FIG. 10).

[3] = system: EMX1 locus; experiment: Illumina deep sequencing of INDELs at the EMX1 locus in HEK293 cells; format: cell-based, human; conditions: for time at which leaky activity was first detected: without 4-hydroxytamoxifen (0 nM)
[4] = system: HEK293 cells; experiment: Immunohistochemical staining, nuclear localization of (ERT2)2-Cas9-(ERT2)2; format: cell-based, human; conditions: no 4-HT; 24 hours after transfection
Method: To verify the results from the Surveyor assays and deep sequencing experiments, immunohistochemical staining was performed to determine the subcellular localization of the three variants, all of which contained two copies of ERT2 at both termini of the enzyme ((ERT2)2-Cas9-(ERT2)2), with or without 1 μM 4-HT. 24 hours after transfection with plasmids carrying a Cas9 variant and a sgRNA targeting the EMX1, VEGFA, FANCF, WAS, or TAT genomic locus, the cells were either fixed immediately and stained with anti-V5 or were subjected to 6 h or 24 h 4-HT treatment before fixation and staining (FIG. 15). […] Most of the protein translocation occurred within the first 6 hours of 4-hydroxytamoxifen treatment.
Paraformaldehyde-fixed HEK293 cells were first incubated with blocking solution (10% FBS in 0.1M PBS) (JR Scientific Inc) for 30 minutes and then quenched with 3% hydrogen peroxide. Next, the samples were incubated for 2 hours at room temperature or 4° C. overnight with primary antibody specific against the V5 epitope tag (Life Technologies) in blocking solution. Negative controls were incubated with blocking solution without any primary antibody. Subsequently, the samples were thoroughly washed with PBS and then incubated for 1 hour at room temperature with secondary horseradish peroxidase (HRP)-conjugated antibody (GE Healthcare UK Ltd). […]

[5] = system: CTNNB1 locus; experiment: Surveyor assay at the CTNNB1 locus in STF3A-Tet-On cells; format: cell-based
[6] = system: known Cas9 off-target sites of the EMX1, VEGFA, FANCF, WAS, and TAT sgRNAs; experiment: Surveyor assay at known Cas9 off-target sites; format: cell-based, human
Method: The specificity of iCas was tested using seven distinct guide RNAs (gRNAs), the results of which are shown in three-dimensional column graphs. […] (n≥2 replicates for each on-target site; n≥3 replicates for each EMX1 off-target site; n≥1 replicate for other off-target sites.)
To assess the DNA cleavage specificity of iCas, the modification of known Cas9 off-target sites of the EMX1, VEGFA, FANCF, WAS, and TAT sgRNAs was measured.

[7] = system: β-catenin; experiment: β-catenin transcript (qRT-PCR) and protein (Western blot) levels; format: cell-based, human; conditions: inducer 6 hours, harvested after another 72 hours
Method: Subsequently, they were harvested for analysis after another 72 hours. […] Error bars reflect the standard deviation from at least three biological replicates.
Proteins from whole cell lysates, nuclear fractions, and cytosolic fractions were loaded in equal amounts for SDS PAGE and then transferred onto a nitrocellulose membrane for western blot. The primary antibodies used were α-V5 (Life Technologies, 1:8000 dilution), α-3PGDH (Santa Cruz, 1:1000 dilution), and α-total histone H3 (Abcam, 1:10000 dilution). Primary antibodies were diluted in TBST+5% milk and incubated overnight at 4° C. Secondary antibodies were used at a 1:2500 dilution in TBST+5% milk. Membranes were exposed after addition of WesternBright Sirius HRP substrate (Advansta).

[8] = system: Wnt signalling pathway; experiment: Wnt-responsive luciferase reporter assay in STF3A-TetOn cells; format: cell-based; conditions: CTNNB1-targeting sgRNA; chemical 6 hours, harvested after another 72 hours
Method: Cells were treated for 6 hours with the respective chemical and then harvested after another 72 hours to allow sufficient time for changes in β-catenin or luciferase protein levels.
The cells were then trypsinised and re-seeded equally into a Corning 96-well flat clear bottom white plate. Samples were assayed for luciferase activity using Dual-Glo Luciferase (Promega) according to manufacturer's instructions. All measurements were taken using the i-control software for Tecan microplate readers. All firefly luciferase measurements were normalized to the corresponding renilla luciferase readings.

[9] = system: WAS locus and ASXL2; experiment: Toggling of iCas activity, Surveyor assay; format: cell-based, human
Method: Subsequently, the possibility of toggling the activity of iCas was explored (FIG. 25b). After 1 μM 4-hydroxytamoxifen treatment of HEK293 cells co-transfected with iCas and a first sgRNA targeting the WAS locus, the inducer was removed and 72 hours waiting time was allowed to pass, thereby allowing nuclear-localized iCas protein to exit the nucleus before introducing a second sgRNA targeting a coding exon of ASXL2. The cells were then either treated with 4-hydroxytamoxifen a second time or left untreated.

[10] = system: HEK293-iCas cells; experiment: Immunofluorescence localization of iCas in the stable line; format: cell-based, human
Method: FIG. 6|Toggling the activity of iCas on and off (a,b) Immunofluorescence images (a) and quantification (b) of iCas in HEK293-iCas cells either untreated (N.A.) or treated with 4-HT and then fixed at 0, 48, or 72 h after removal of 4-HT from the culture medium. DAPI, nuclear staining; V5, antibody specific for V5-tagged Cas9. Scale bar, […]. In (b), at least 300 cells were counted for each sample and time point. Data represent mean±s.d. from three biological replicates. n.s., not significant (P>0.25); **P<0.001, Student's t-test. (c) Surveyor assay detection of genome modification in HEK293 cells after two cycles of transfection and 4-HT treatment (4-HT 1 and 4-HT 2). A sgRNA targeting the WAS locus was transfected first, and a sgRNA targeting the ASXL2 locus second. Arrows indicate the expected cleavage bands.
In principle, a conditional system such as iCas should allow users to generate stable cell lines and induce its activity whenever needed. […] The cell line was verified to be functional (FIG. 25a) and monitored the intracellular localization of iCas by immunofluorescence (FIG. 6a). Without 4-hydroxytamoxifen, most cells produced an iCas protein that was localized in the cytoplasm; only 15% of the cells contained nuclear-localized protein. […] The inducer was then washed away and the cells immunostained with anti-V5 antibody at 48 and 72 hours after removal of 4-hydroxytamoxifen.

[11] = system: EMX1 and ADAR1 genomic loci; experiment: Multiplex genome editing, Surveyor assay; format: cell-based, human
Method: Besides single gene targeting, the ability of iCas to perform multiplex genome engineering was compared with that of intein-Cas9 or split-Cas9. HEK293 cells were co-transfected with a sgRNA targeting EMX1 and another sgRNA targeting a coding exon of ADAR1 (ADAR), and subsequently the extent of genome modification was analysed by the Surveyor assay.

[12] = system: VEGFA promoter, WAS, TAT, and FANCF genes; experiment: Surveyor assay at VEGFA, WAS, TAT and FANCF genomic loci in HEK293 cells; format: cell-based, human; conditions: 1 μM 4-HT
Text: (§1) The editing activity continued to increase with longer treatment durations.

[13] = system: PARP4 gene; experiment: Surveyor assay at PARP4 in the HEK293-iCas stable line; format: cell-based, human; conditions: 1 μM 4HT for 24 hours; after at least two weeks of passaging
Method: FIG. 27|Temporal switching of iCas activity. […] To assess the functionality of this cell line, a lentivirus expressing a sgRNA targeting one of the coding exons of the PARP4 gene was generated, and HEK293-iCas cells were infected the virus. After puromycin selection and continuous passaging of the cells for at least two weeks, the cells were treated with or without 1 μM 4HT for 24 hours before harvesting them for analysis using the Surveyor assay. […] When the cells are treated with 4HT, the iCas enzyme is expected to translocate into the nucleus and be able to edit the DNA (these cells are depicted as yellow). However, when the inducer has been removed for more than 72 hours, the iCas protein is expected to translocate out of the nucleus and thus no more editing will be anticipated.

[14] = system: TAT locus; experiment: Surveyor assay at the TAT locus in cancer cell lines; format: cell-based, human; conditions: 1 μM 4HT; MCF7, DLD1 and HCT116
Method: FIG. 18|Genome modification at the TAT locus in different cancer cell lines. The efficiency of iCas was tested in the breast cancer cell line MCF7, as well as in the colorectal cancer cell lines DLD1 and HCT116, the results of which are shown as gel images. Based on the Surveyor assays, genome modifications were detected after the cells were treated with 1 μM 4HT for 6 hours. The INDEL frequency increased when the treatment duration was lengthened to 8 hours for all the cell lines tested. Arrows indicate the expected cleavage bands.
as §1

[15] = system: EMX1, TAT, and WAS genomic loci; experiment: Benchmarking of post-translational control systems by Surveyor assay and deep sequencing; format: cell-based, human
Text: Arrows indicate the expected cleavage bands.

[16] = absence of 4HT, harvested 24 hours after transfection (0 hour time point)

For “4-hydroxytamoxifen [4HT, reference compound]”, the “4HT concentration for maximum activation of the inducible genome editing system” value ([1]; 10, 100, 1000 nM tested, Surveyor assay and deep sequencing) was “at least 100 nM”.

“variant 27: NLS-TGGGS-ERT2-PRGGS-ERT2-TPESGA-Cas9-NLS-ERT2-PAG-ERT2 (SEQ ID NO. 246)” was tested, and the INDEL frequency ([2]; 0 nM 4HT for another 24 hours) was 7.7%, the “cleavage bands with 4HT” value [2] was “strong cleavage bands were observed” and the INDEL frequency [2, 16] was 2.5%. For the same substance, the “duration of 4-hydroxytamoxifen treatment at which cleavage activity appears to plateau” value (shortened to “duration … to plateau”) ([1]; Surveyor assay) was “around 8 hours”, the “duration of 4-hydroxytamoxifen treatment after which a low level of DNA editing was revealed” value (“duration … of DNA editing was revealed” for short) [3] was 2 h and the “time at which leaky activity was first detected” value [3] was 6 h.

“variant 29: NLS-TG-ERT2-GGSPRGGS-ERT2-TPESGA-Cas9-NLS-ERT2-PAG-ERT2 (SEQ ID NO. 248)” was tested, and the INDEL frequency ([2]; 0 nM 4HT for another 24 hours) was 3.5%, the “cleavage bands with 4HT” value [2] was “strong cleavage bands were observed” and the INDEL frequency [2, 16] was 2.9%. The “duration … to plateau” value ([1]; Surveyor assay) was “around 8 hours”, the “duration … of DNA editing was revealed” value [3] was 2 h and the “time at which leaky activity was first detected” value [3] was 2 h.

“variant 30: NL-TGGGS-ERT2-PRGGS-ERT2-TPESGA-Cas9-NLS-ERT2-PAGGGS-ERT2 (SEQ ID NO. 249); hereafter referred to as iCas” was tested, and the “nuclear localization in the absence of 4-hydroxytamoxifen, versus variant 27 or variant 29” value [4] was “significantly less nuclear localization”, the “duration of inducer treatment until modification of the target locus” value ([5]; 1 μM 4-hydroxytamoxifen or 1 μg/ml doxycycline) was ≤ 6 h and the “cleavage bands in the absence of 4-hydroxytamoxifen” value ([5]; any time point) was “No cleavage bands were observed”. The “cleavage bands with 4HT” value [2] was “strong cleavage bands were observed”, the “cleavage band in the absence of 4HT” value ([2]; no 4HT) was “no cleavage band was detected” and the “cleavage at the two EMX1 off-target sites” value ([6]; EMX1 sgRNA, 1 μM 4-hydroxytamoxifen up to 24 hours) was “did not yield any measurable cleavage”. For the same substance, the “duration of 4HT treatment after which off-target effects were observed” value ([6]; gRNAs targeting VEGFA promoter first site, TAT locus, FANCF locus) was 16 h, the “amount of β-catenin protein relative to the original level” value ([7]; co-transfected with β-catenin-targeting sgRNA, Western blot) was “less than 20%” and the “transcript level of β-catenin” value ([7]; β-catenin-targeting sgRNA, qRT-PCR) was “significant decrease”. The luciferase activity [8] was “significant decrease in luciferase activity”, the “cleavage after two cycles of transfection, treated twice with the inducer” value ([9]; 1 μM 4-hydroxytamoxifen after first and second transfection) was “cleavage activity was readily observed at both targeted loci” and the “cleavage after two cycles of transfection, inducer after the first transfection only” value ([9]; 4-hydroxytamoxifen after the first but not the second transfection) was “cleavage was detected only at the WAS locus”. For the same substance, the “cells containing nuclear-localized protein” value ([10]; 24 hour treatment with 4-hydroxytamoxifen) was 48%, the “cells containing nuclear-localized protein” value ([10]; 72 hours after removal of 4-hydroxytamoxifen) was “not significantly different from that of the pre-induction state” and the “cells containing nuclear-localized protein” value ([10]; without 4-hydroxytamoxifen) was 15%. For the same substance, the “editing of two genomic loci simultaneously” value ([11]; 12 hours of chemical treatment) was “generated INDELs at both the EMX1 and ADAR1 genomic loci”, the “editing of two genomic loci simultaneously” value ([11]; 24 hours of chemical treatment) was “produced more genome modification than at 12 hours” and the “duration of 4-hydroxytamoxifen treatment until nuclease activity, all loci tested” value [12] was ≤ 4 h. For the same substance, the switching ratio ([1]; 0.25 μg plasmid) was 7.96, the switching ratio ([1]; 0.5 μg plasmid) was 4.16 and the switching ratio ([1]; 1 μg of plasmid) was 2.83. For the same substance, the “duration … to plateau” value ([1]; Surveyor assay) was “around 8 hours”, the “time point at which leaky activity was observed” value ([1]; without 4-hydroxytamoxifen (0 nM), Surveyor assay) was 48 h and the “cleavage bands with or without 4HT in the stable line” value [13] was “Cleavage bands (indicated by arrows) were observed for the treated cells, but not for the untreated cells”. For the same substance, the “duration of 4HT treatment after which genome modifications were detected” value [14] was 6 h, the “switching ratio compared with intein-Cas9” value ([15]; Surveyor assay, EMX1 and WAS loci) was “significantly higher ratios than intein-Cas9” and the “induction time needed to reach the INDEL frequency of split-Cas9 after approximately 96 hours” value ([15]; deep sequencing) was 12 h. The “background activity without the inducer” value ([15]; no inducer) was “comparable levels of leakiness”, the “duration … of DNA editing was revealed” value [3] was 2 h and the “time at which leaky activity was first detected” value [3] was 16 h.
